In ChEMBL document CHEMBL1201862, “PubChem BioAssay data set” (2004):
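Following 48 hours of exposure in 96-well plates, responses at five concentrations were used to interpolate endpoints linearly. Here, GI50 denotes the concentration required for 50% inhibition of growth.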 Calls of active or inactive are those of the source. Cut-off read from the data, not from the text of the source: active = GI50 up to about 1.1 µM and inactive = higher.

Assays:
Test in all cases: inhibition of tumour cell growth, NCI panel, 48 h
[1] = tested on: SK-MEL-28
[2] = tested on: IGROV-1
[3] = tested on: UACC-257
[4] = tested on: SF-539
[5] = tested on: OVCAR-4
[6] = tested on: A549
[7] = tested on: KM12
[8] = tested on: UO-31
[9] = tested on: SNB-75
[10] = tested on: MOLT-4
[11] = tested on: K562
[12] = tested on: SNB-19
[13] = tested on: U-251
[14] = tested on: HL-60
[15] = tested on: NCI-H460
[16] = tested on: NCI-H23
[17] = tested on: SN12C
[18] = tested on: SW-620
[19] = tested on: SF-295
[20] = tested on: EKVX

Measured: GI50

CC(C)=CCC/C(C)=C/CCC1(C)C=Cc2c(c3ccccc3oc2=O)O1 (stereo not given)
inactive: [1] 16.1 µM | [2] 16.4 µM | [3] 17.1 µM | [4] 16.1 µM | [5] 14.5 µM | [6] 17.5 µM | [7] 18.5 µM | [8] 15.5 µM | [9] 13.4 µM | [10] 20.6 µM | [11] 23.6 µM | [12] 20.5 µM | [13] 15.3 µM | [14] 23.8 µM | [15] 15.8 µM | [16] 14.8 µM | [17] 16.8 µM | [18] 19.4 µM | [19] 18.8 µM | [20] 18.5 µM

COc1cc(O)cc(/C=C/c2ccc(O)cc2)c1
inactive: [1] > 100 µM | [2] 53.3 µM | [3] 40.8 µM | [4] 35.6 µM | [5] 44.6 µM | [6] 27.7 µM | [7] 25.4 µM | [8] 39.1 µM | [9] 90.4 µM | [10] 36 µM | [11] 28.2 µM | [12] 36.6 µM | [13] 22.4 µM | [14] 27.2 µM | [15] 44.7 µM | [16] 26.7 µM | [17] 27.5 µM | [18] 48.8 µM | [19] 25.7 µM | [20] 28.4 µM
